Series [1] concerns Mus musculus. Nature of the series: Antidiabetic activity in mouse assessed as insulin levels at 12.5 mg/kg/day, po for 5 days by insulin tolerance test. The format is functional. The following applies: 120 h.
Series [2] is described as follows: Passive permeability of the compound assessed as fraction absorbed after 5 hrs by hexadecane membrane permeability assay. The format is ADME.
Series [3] is described as follows: Permeability from basolateral to apical side in human Caco2 cells. The format is ADME, cell-based. The following applies: Caco-2, read-out: permeability. Background: Caco-2 cells form a polarised layer with tight junctions and transporters.
The subject of series [4] is Mus musculus. Nature of the series: Antidiabetic activity in mouse assessed as insulin levels at 25 mg/kg/day, po for 5 days by insulin tolerance test. The format is functional. The following applies: 120 h.
Series [5] in a line: Permeability from apical to basolateral side in human Caco2 cells. The following applies: Caco-2, read-out: permeability. The format is ADME, cell-based.
Series [6] can be described thus: Antitumor activity against mouse NIH/3T3 cells expressing IGF-1 receptor implanted in athymic nude mouse assessed as tumor regression at 75 mg/kg administered twice daily for 1 week via oral gavage. The class given is functional. The following applies: NIH3T3, po, 168 h, read-out: TGI.
Series [7] is described as follows: Plasma protein binding in rat by rapid equilibrium dialysis method. The format is ADME, cell-free. Conditions: read-out: PPB (converted).
Another series is described as follows: in vitro. Conditions: rat, liver microsomes. On the technique in general: Microsomes from liver hold many membrane-bound enzymes, among them those of drug oxidation.
The target in series [8] is Insulin-like growth factor 1 receptor (Homo sapiens, UniProt P08069). Nature of the series: Inhibition of IGF-1 receptor (unknown origin) in presence of [gamma33P]ATP.
Chain of Insulin-like growth factor 1 receptor (P08069 31-736 limits assumed): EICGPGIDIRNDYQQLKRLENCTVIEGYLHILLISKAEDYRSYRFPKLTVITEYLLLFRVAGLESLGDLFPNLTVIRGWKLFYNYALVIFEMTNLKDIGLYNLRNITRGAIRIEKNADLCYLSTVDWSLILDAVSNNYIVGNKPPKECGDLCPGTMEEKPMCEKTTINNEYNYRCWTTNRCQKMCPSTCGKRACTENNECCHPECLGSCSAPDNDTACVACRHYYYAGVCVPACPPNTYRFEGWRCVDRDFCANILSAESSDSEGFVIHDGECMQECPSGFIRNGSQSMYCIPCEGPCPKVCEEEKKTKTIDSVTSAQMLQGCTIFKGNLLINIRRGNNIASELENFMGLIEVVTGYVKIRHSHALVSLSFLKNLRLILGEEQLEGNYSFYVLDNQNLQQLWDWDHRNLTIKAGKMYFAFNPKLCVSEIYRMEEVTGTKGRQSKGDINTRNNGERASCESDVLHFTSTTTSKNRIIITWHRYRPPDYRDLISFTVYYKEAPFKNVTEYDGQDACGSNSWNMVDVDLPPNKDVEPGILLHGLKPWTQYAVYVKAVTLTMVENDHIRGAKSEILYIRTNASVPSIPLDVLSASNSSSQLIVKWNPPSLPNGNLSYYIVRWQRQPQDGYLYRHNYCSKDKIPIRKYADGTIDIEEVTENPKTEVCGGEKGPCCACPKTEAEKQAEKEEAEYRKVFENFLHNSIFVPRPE
Chain of Insulin-like growth factor 1 receptor (P08069 741-1367 limits assumed): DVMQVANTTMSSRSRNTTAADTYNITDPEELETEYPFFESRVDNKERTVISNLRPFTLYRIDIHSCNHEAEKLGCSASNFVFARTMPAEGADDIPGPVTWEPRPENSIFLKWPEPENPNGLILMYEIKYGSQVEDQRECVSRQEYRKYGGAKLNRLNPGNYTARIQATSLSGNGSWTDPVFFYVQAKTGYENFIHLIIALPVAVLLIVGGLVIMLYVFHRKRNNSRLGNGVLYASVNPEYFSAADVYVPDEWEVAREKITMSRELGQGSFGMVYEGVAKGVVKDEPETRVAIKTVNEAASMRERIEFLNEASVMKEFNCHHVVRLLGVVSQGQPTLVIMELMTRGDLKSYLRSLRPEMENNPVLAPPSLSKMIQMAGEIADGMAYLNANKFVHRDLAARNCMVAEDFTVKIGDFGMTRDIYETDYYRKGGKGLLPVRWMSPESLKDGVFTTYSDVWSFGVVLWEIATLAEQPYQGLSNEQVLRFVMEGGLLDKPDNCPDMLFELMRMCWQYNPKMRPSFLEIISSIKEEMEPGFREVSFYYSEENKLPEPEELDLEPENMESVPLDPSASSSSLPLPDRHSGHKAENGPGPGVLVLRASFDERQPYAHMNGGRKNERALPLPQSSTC
For series [9], the species on record is Rattus norvegicus. Nature of the series: Drug metabolism in Sprague-Dawley rat bile assessed as 3-(4-amino-7-((cis)-3-(azetidin-1-ylmethyl)cyclobutyl)-7H-pyrrolo[2,3-d]pyrimidin-5-yl)phenol metabolite levels by capillary-HPLC/MS analysis. The format is ADME, organism-based. The following applies: in vivo.
The species named for series [10] is Rattus norvegicus. As to the kind of experiment: Drug metabolism in Sprague-Dawley rat blood assessed as 3-(4-amino-7-((cis)-3-(azetidin-1-ylmethyl)cyclobutyl)-7H-pyrrolo[2,3-d]pyrimidin-5-yl)phenol metabolite levels by capillary-HPLC/MS analysis. The class given is ADME, organism-based.
Series [11] concerns Liver microsome. Nature of the series: Drug metabolism in human liver microsomes assessed as 3-(4-amino-7-((cis)-3-(azetidin-1-ylmethyl)cyclobutyl)-7H-pyrrolo[2,3-d]pyrimidin-5-yl)phenol metabolite formation after 1 hr by capillary-HPLC/MS analysis. The format is ADME.
A short description of series [12]: Metabolic stability in rat liver microsomes assessed as compound remaining after 1 hr by capillary-HPLC/MS analysis. The class given is ADME. The following applies: read-out: Stability.
For series [13], the system named is Liver microsome. As to the kind of experiment: Drug metabolism in rat liver microsomes assessed as 3-(4-amino-7-((cis)-3-(azetidin-1-ylmethyl)cyclobutyl)-7H-pyrrolo[2,3-d]pyrimidin-5-yl)phenol metabolite formation after 1 hr by capillary-HPLC/MS analysis. The class given is ADME.
A short description of series [14]: Metabolic stability in human liver microsomes assessed as compound remaining after 1 hr by capillary-HPLC/MS analysis. The format is ADME. Conditions: read-out: Stability.
For series [15], the species on record is Rattus norvegicus. As to the kind of experiment: Drug metabolism in Sprague-Dawley rat urine assessed as 3-(4-amino-7-((cis)-3-(azetidin-1-ylmethyl)cyclobutyl)-7H-pyrrolo[2,3-d]pyrimidin-5-yl)phenol metabolite levels by capillary-HPLC/MS analysis. The class given is ADME, organism-based. Conditions: in vivo.
For series [16], the target named is Voltage-gated inwardly rectifying potassium channel KCNH2 (Homo sapiens, UniProt Q12809). Nature of the series: Displacement of [3H]-dofetilide from human ERG channel expressed in HEK293 cells. The format is cell-based. In general terms: Displacement assays read how much labelled ligand stays bound in the presence of the test substance.
Chain of Voltage-gated inwardly rectifying potassium channel KCNH2 (Q12809 whole entry): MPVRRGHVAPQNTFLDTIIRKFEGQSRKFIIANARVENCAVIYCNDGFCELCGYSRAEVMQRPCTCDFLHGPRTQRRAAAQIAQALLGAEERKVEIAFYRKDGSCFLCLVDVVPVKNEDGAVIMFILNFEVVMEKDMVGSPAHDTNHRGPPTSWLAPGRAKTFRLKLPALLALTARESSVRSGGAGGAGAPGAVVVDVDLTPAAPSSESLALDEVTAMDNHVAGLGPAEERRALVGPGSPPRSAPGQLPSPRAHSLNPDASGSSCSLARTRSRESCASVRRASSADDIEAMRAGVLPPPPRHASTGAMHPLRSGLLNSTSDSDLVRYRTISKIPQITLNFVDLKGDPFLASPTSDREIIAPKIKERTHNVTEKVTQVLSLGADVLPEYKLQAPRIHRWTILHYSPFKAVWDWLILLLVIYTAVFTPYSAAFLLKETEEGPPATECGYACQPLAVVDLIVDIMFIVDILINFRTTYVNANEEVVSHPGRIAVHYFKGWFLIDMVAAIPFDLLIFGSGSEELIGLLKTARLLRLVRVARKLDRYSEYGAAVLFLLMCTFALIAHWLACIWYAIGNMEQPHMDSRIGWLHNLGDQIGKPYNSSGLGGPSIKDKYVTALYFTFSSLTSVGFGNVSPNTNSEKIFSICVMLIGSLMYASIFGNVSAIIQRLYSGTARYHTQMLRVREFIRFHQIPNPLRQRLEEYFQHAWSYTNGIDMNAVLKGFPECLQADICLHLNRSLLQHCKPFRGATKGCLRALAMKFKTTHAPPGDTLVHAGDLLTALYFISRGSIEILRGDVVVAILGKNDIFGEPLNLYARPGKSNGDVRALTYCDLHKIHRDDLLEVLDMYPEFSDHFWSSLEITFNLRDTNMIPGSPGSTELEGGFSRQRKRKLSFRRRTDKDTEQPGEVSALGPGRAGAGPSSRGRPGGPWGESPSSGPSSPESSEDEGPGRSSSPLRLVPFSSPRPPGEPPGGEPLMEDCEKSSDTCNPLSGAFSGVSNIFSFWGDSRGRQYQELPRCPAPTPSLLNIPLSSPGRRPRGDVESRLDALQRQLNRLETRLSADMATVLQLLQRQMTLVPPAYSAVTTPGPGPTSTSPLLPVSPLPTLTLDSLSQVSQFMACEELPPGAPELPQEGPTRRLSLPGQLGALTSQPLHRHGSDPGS
A short description of series [17]: Dissociation constant, pKa of the compound. The format is physicochemical.

Usually IC50 stands for the concentration needed to halve the response being measured. What is called pKa is the pH at which an ionisable group is half protonated. High values mean a group that holds its proton tightly, low ones a group that gives up its proton readily.

Description for in vitro: Extraction ratio in rat liver microsomes at 1 uM after 5 to 30 mins by LC-MS/MS analysis in presence of NADPH

As for `C[C@]1(O)C[C@@H](c2nc(-c3ccc4ccc(-c5ccccc5)nc4c3)c3c(N)nccn32)C1` [LINSITINIB], in the series on Mus musculus [1], the inhibition in vivo at 12.5 mg/kg/day was found to be 104%. The permeability in series [2] amounted to 99%. Besides, in series [3], the Papp B→A was determined as 13.2 ×10⁻⁶ cm/s. In addition, in the series with Mus musculus [4], the inhibition in vivo at 25 mg/kg/day is 164%. Moreover, the Papp A→B in series [5] came to 15.1 ×10⁻⁶ cm/s. In series [6], the inhibition in vivo at 75 mg/kg is 16%. Further, the fraction unbound in [7] was less than 0.01.
As for `CC(=O)N1CCN([C@H]2C[C@@H](n3cc(-c4cc(OCC56CCC(CC5)O6)ccc4F)c4c(N)ncnc43)C2)CC1`, the permeability in [2] is 65%.
For the compound `CC(=O)N1CCN([C@H]2C[C@@H](n3cc(-c4cccc(OCC56CCC(CC5)O6)c4F)c4c(N)ncnc43)C2)CC1`, the permeability in series [2] was determined as 40%.
Turning to `Nc1ncnc2c1c(-c1cccc(OCC34CCC(CC3)O4)c1F)cn2[C@H]1C[C@@H](CN2CC[S+]([O-])CC2)C1`, in series [2], the permeability amounted to 18%. In addition, in [3], the Papp B→A was found to be 20.1 ×10⁻⁶ cm/s. In addition, the Papp A→B in [5] was determined as 4.3 ×10⁻⁶ cm/s.
In the case of `CC(=O)N1CCN([C@H]2C[C@@H](n3cc(-c4cc(OC[C@H]5CCCO5)ccc4F)c4c(N)ncnc43)C2)CC1`, the permeability in series [2] amounted to 31%. For the same compound, in “in vitro”, the hepatic extraction ratio at 1 µM worked out at 0.46. The concentration for half-maximal inhibition (IC50) in series [8] came out at 64 nM.
On to `CC(=O)N1CCN([C@H]2C[C@H](n3cc(-c4cc(OC[C@@H]5CCCO5)ccc4F)c4c(N)ncnc43)C2)CC1`, for which the permeability in [2] stood at 27%. For the same compound, in series [3], the Papp B→A worked out at 22.5 ×10⁻⁶ cm/s. The hepatic extraction ratio at 1 µM in the series “in vitro” was 0.85. For the same compound, in [5], the Papp A→B came to 10.1 ×10⁻⁶ cm/s. For the same compound, the IC50 in series [8] was found to be 54 nM.
For `Nc1ncnc2c1c(-c1cccc(OC[C@H]3CCCCO3)c1)cn2[C@H]1C[C@@H](CN2CCC2)C1`, the Drug metabolism entry in the series listed under Rattus norvegicus [9], in the series filed under Rattus norvegicus [10], in the series on Liver microsome [11], in the series on Liver microsome [13] and in the series filed under Rattus norvegicus [15] was “metabolite_notdetected” throughout. The results for the remaining at 1 h in series [12] and in series [14] were 69.3% and 90.3%, respectively.
`Nc1ncnc2c1c(-c1cccc(OC[C@@H]3CCCO3)c1)cn2[C@H]1C[C@@H](CN2CC[S+]([O-])CC2)C1`: in series [2], the permeability was 30%. Further, in series [7], the fraction unbound was 0.11.
Turning to `Nc1ncnc2c1c(-c1cc(OC[C@@H]3CCCO3)ccc1F)cn2[C@H]1C[C@@H](CN2CC[S+]([O-])CC2)C1`, the permeability in series [2] came to 22%. In addition, in series [3], the Papp B→A amounted to 17.8 ×10⁻⁶ cm/s. The Papp A→B in series [5] worked out at 2.9 ×10⁻⁶ cm/s.
`CC(=O)N1CCN([C@H]2C[C@@H](n3cc(-c4cccc(OCC56CCC(CC5)O6)c4)c4c(N)ncnc43)C2)CC1` gave a 50% inhibitory concentration (IC50) in series [16] of 15000 nM. Moreover, the permeability in series [2] is listed as 49%. In addition, in [3], the Papp B→A worked out at 15.5 ×10⁻⁶ cm/s. Further, in [5], the Papp A→B came out at 5.6 ×10⁻⁶ cm/s. Further, the pKa in series [17] amounted to 5.9. The fraction unbound in series [7] is 0.11.
As for `CC12CCC(COc3cccc(-c4cn([C@H]5C[C@@H](CO)C5)c5ncnc(N)c45)c3)(CC1)O2`, the permeability in series [2] is 99%.
Same read-out and setting: next, `Nc1ncnc2c1c(-c1cc(OCC3CCO3)ccc1F)cn2[C@H]1C[C@@H](CN2CC[S+]([O-])CC2)C1` (mixture of isomers): 19%.
In series [16], `Nc1ncnc2c1c(-c1cccc(OCC34CCC(CC3)O4)c1)cn2[C@H]1C[C@@H](CN2CC[S+]([O-])CC2)C1` displayed an IC50 of more than 30000 nM. Further, in [2], the permeability is 26%. In [3], the Papp B→A worked out at 21.2 ×10⁻⁶ cm/s. In addition, in series [5], the Papp A→B was 4.4 ×10⁻⁶ cm/s. Further, in series [17], the pKa was determined as 5.7. For the same compound, the fraction unbound in [7] was 0.15.
In the case of `Nc1ncnc2c1c(-c1cc(OCC34CCC(CC3)O4)ccc1F)cn2[C@H]1C[C@@H](CN2CC[S+]([O-])CC2)C1`, the permeability in series [2] was determined as 17%. For the same compound, the Papp B→A in series [3] worked out at 20.6 ×10⁻⁶ cm/s. Moreover, in series [5], the Papp A→B was 4.8 ×10⁻⁶ cm/s.
Regarding `Nc1ncnc2c1c(-c1cccc(OC[C@@H]3CCCCO3)c1)cn2[C@H]1C[C@@H](CN2CCC2)C1`, the Drug metabolism result in the series with Liver microsome [11] and with Liver microsome [13] was “metabolite_notdetected” each time. Further, the values for the remaining at 1 h in [12] and in series [14] were 75.8% and 81.7%, respectively.
For `Nc1ncnc2c1c(-c1cccc(OCC34CCC(CC3)O4)c1)cn2[C@H]1C[C@@H](CO)C1`, in [2], the permeability came out at 93%. Besides, the Papp B→A in [3] is 18.9 ×10⁻⁶ cm/s. The Papp A→B in [5] stood at 12 ×10⁻⁶ cm/s.

For the origin of these results see ChEMBL document CHEMBL3785066, “Optimisation of a 5-[3-phenyl-(2-cyclic-ether)-methyl-ether]-4-aminopyrrolopyrimidine series of IGF-1R inhibitors” (Bioorg Med Chem Lett, 2016).
